Source: patent publication US5096918A, “Isoindoline nitromethane derivatives” (Imperial Chemical Industries PLC, priority 1989, dated 1992)

Target: T1, aldose reductase (Bos taurus, UniProt P16116)
T1 construct: isolated in known manner from bovine lenses; from tissue; host or cells: bovine lens
Assay: in vitro inhibition of partially purified aldose reductase (reduction of glucose to sorbitol, spectrophotometric)
Type: biochemical
Settings: partially purified enzyme from bovine lenses
Method: Thus, partially purified aldose reductase is isolated in known manner from bovine lenses. The percentage inhibition of this enzyme's ability in vitro to catalyse the reduction of aldoses to polyhydric alcohols, and particularly to reduce glucose to sorbitol, caused by a test compound is then determined using standard spectrophotometric methods.

| IC50 [nM] | SMILES |
| --- | --- |
| 330 | O=[N+]([O-])CS(=O)(=O)N1CCCCC1 [Example 1, N-(nitromethylsulphonyl)piperidine] |
| 880 | O=[N+]([O-])CS(=O)(=O)N1CCOCC1 [N-(nitromethylsulphonyl)morpholine] |
